# Source: patent US12544377B2, “Compounds, compositions and methods of treating or preventing acute lung injury” (Yale University, priority 2017, dated 2026)
# “Also recorded” adds a separate entry of the source.
# How the values were obtained:
# LPS-induced lung injury = LPS-induced lung injury in mice; format: in vivo; details: for difference between HS-DKO and WT control mice in permeability and edema, LPS-induced injury: mice fed diet containing BHA
# Procedure: Mice were anesthetized with ketamine/Xylazine (1 gm/kg and 100 mg/kg) and were allowed to inhaled 50 μl of LPS (1 mg/ml) placed as droplets on nares. Mice postures were maintained upright. Twenty-two hours after the induction of injury, 100 μl of FITC-labeled albumin (10 mg/ml) were injected via retro-orbital vein, and 24 hours after the induction of injury, mice were euthanized by exsanguination. To obtain bronchoalveolar lavage fluid, 1 ml of PBS was instilled into lungs and retrieved a via a tracheal catheter. In some experiments, mice were first fed with antioxidant BHA in food (Harlan Laboratory Services) for 7 days before the induction of lung injury.
# HCl-induced lung injury = assay: HCl (acid aspiration)-induced lung injury in mice; format: in vivo; details: for pulmonary permeability, HCl-induced lung injury, treatment after injury: six hours after injury; for lung permeability, HCl-induced lung injury, preventative treatment: 1.5 mg/Kg intra-nasal 0.5 hour before HCl (0.05 M); for survival, HCl-induced lung injury, preventative treatment: 1.5 mg/Kg intra-nasal 0.5 hour before HCl (0.1 M); for HCl-induced acute lung injury / survival of mice: FIG. 15
# Procedure: Mice were anaesthetized by ketamine/Xylazine ([…] and 100 mg/kg) and were suspended vertically from their incisors on a custom-made mount for orotracheal instillation. A 22 G catheter (Jelco, Smiths Medical) was guided 1.5 cm below the vocal cords, and 2.5 μl/g of 0.05 M HCl was instilled. Two hours after the induction of injury, 100 μl of FITC-labeled albumin (10 mg/ml) was injected via retro-orbital vein. Measurements were made 6 hours after the induction of injury. Control animals received saline instead of HCl in the same manner. In survival experiments, mice received 2.5 μl/g of 0.1 M HCl orotracheally and the observation period was extended up to 30 h.
# [1] = system: bleomycin-induced lung fibrosis; assay: Bleomycin-induced lung fibrosis in mice (hydroxyproline levels); format: in vivo; details: 0.05 unit bleomycin once, one week later 60 mg/kg orally for five days
# From the text: A long detrimental effect of ALI is fibrosis. […] A bleomycin-induced lung fibrosis model was used in this study: Gan, et al., 2012, Nat. Cell Biol. 14:686.
# [2] = system: p47phox Ser-208 phosphorylation in neutrophils; assay: Western analysis of fMLP-stimulated neutrophils (phospho-Ser-208 p47phox, MAP3K3 protein); details: for p47phox phosphorylation at Ser-208 in neutrophils: pretreated 10 min before fMLP (1 μM), phospho-specific antibody
# Procedure: One day after lung injury induction, lung permeability (FIG. 5D) and histology (FIG. 5E) were examined. […] The C57Bl mice were treated as above and their survival was analyzed by the Mantel-Cox Log-Rank test.
# human neutrophils = assay: ROS production assay in human neutrophils stimulated with fMLP; details: fMLP (100 nM), 20 nM pazopanib
# Procedure: One day after lung injury induction, lung permeability was determined. […] Six hours after lung injury induction, lung permeability (FIG. 12D) and histology (FIG. 12E) were examined. […] Data from one experiment are presented as mean±sem (Student t-Test, *p<0.05, n=5). […] Six hours after lung injury induction, lung permeability were examined. […] Data from one experiment are presented as mean±sem (Student t-Test, *p<0.05, n=5).
# mouse neutrophils = assay: ROS release assay in mouse neutrophils stimulated with fMLP; details: pretreated 10 min before fMLP (1 μM)
# Procedure: Mice were euthanized in a CO2 chamber according to approved protocol, bone marrow was harvested from long bones of the mice, red blood cells (RBCs) were lysed with ACK buffer (155 mM NH4Cl, 10 mM KHCO3 and 127 μM EDTA), the cells were layered on a discontinuous Percoll gradient composed of 81%, 62% and 45% Percoll layers, and the cells were isolated from the interphase between 81% and 62% Percoll layers. Cells were washed in HBSS and used for various assays.
# Neutrophils were suspended in a reaction mixture (0.25% BSA in HBSS with Ca^2+ and Mg^2+, 10 mM Isoluminol, 100 μ/ml HRP), distributed cells in the well of a 96 well plate, and stimulated with fMLP (10 μM). Isoluminol-enhanced chemiluminescence was recorded continuously in a plate reader (Perkin Elmer).
# [3] = 1.5 mg/Kg intra-nasal 1 h after HCl (0.05 M)
compound,measurement,setting,value
"COc1ccc(O)c(C(C)(C)C)c1 [BHA, butylated hydroxyanisole]",pazopanib's effect on lung permeability in mice fed BHA,"LPS-induced lung injury; chew containing BHA, 60 mg/Kg/day pazopanib via gavage, LPS",abrogates pazopanib's effect on lung permeability
same,"difference between HS-DKO and WT control mice in permeability and edema, LPS-induced injury",LPS-induced lung injury,abrogates the difference
same,"difference between HS-DKO and WT control mice in permeability and edema, LPS-induced injury",LPS-induced lung injury; listed as butylated hydroxyanisole (BHA),dissipated
"NC1(c2ccc(-c3nc4ccn5c(=O)[nH]nc5c4cc3-c3ccccc3)cc2)CCC1 [MK-2206, 8-[4-(1-Aminocyclobutyl)phenyl]-9-phenyl-2H-[1,2,4]triazolo[3,4-f][1,6]naphthyridin-3-one]",effect of pazopanib on permeability in LPS-injured lungs in presence of AKT inhibitor,LPS-induced lung injury; MK-2206 10 mg/Kg with or without 60 mg/Kg/day pazopanib via gavage,abrogates the effect of pazopanib on permeability
"Cc1ccc(NC(=O)c2ccc(CN3CCN(C)CC3)cc2)cc1Nc1nccc(-c2cccnc2)n1 [imatinib, 4-[(4-methylpiperazin-1-yl)methyl]-N-(4-methyl-3-{[4-(pyridin-3-yl)pyrimidin-2-yl]amino}phenyl)benzamide]","pulmonary permeability, HCl-induced lung injury, treatment after injury",HCl-induced lung injury; [3],ineffective in reducing lung permeability; also recorded: does not attenuate HCl-induced lung injury
same,"pulmonary permeability, HCl-induced lung injury, treatment after injury","HCl-induced lung injury; 1.5 mg/Kg intra-nasal 1 h after HCl (0.05 M), listed as Imatinib",trend of aggravation of the injury
"Cc1ccc(Nc2nccc(N(C)c3ccc4c(C)n(C)nc4c3)n2)cc1S(N)(=O)=O [pazopanib, 5-((4-((2,3-dimethyl-2H-indazol-6-yl)(methyl)amino)pyrimidin-2-yl)amino)-2-methylbenzenesulfonamide]",lung fibrosis (levels of hydroxyproline),[1],inhibits bleomycin-induced lung fibrosis
same,lung fibrosis (levels of hydroxyproline),[1]; listed as Pazopanib,inhibit lung fibrosis
same,increase in MAP3K3 protein content induced by fMLP,"[2]; neutrophils, fMLP",abrogated increase in MAP3K3 protein content
same,p47phox phosphorylation at Ser-208 in neutrophils,[2],inhibits phosphorylation of Ser-208
same,p47phox phosphorylation at Ser-208 in neutrophils,[2]; listed as Pazopanib,inhibit
same,"mortality, LPS-induced lung injury, therapeutic modality",LPS-induced lung injury; 1.5 mg/Kg intra-nasal 24 h after LPS,reduced mortality; also recorded: therapeutic treatment of pazopanib reduces mortality
same,"mortality, LPS-induced lung injury, prophylactic modality",LPS-induced lung injury; 60 mg/Kg/day via gavage two days before injury,reduces mortality
same,"lung injury in mice lacking MEKK2/3 (HS-DKO), LPS","LPS-induced lung injury; HS-DKO mice, 60 mg/Kg/day via gavage, FIGS. 12C-12D",no effects on lung injury
same,AKT phosphorylation in LPS-injured HS-DKO lungs,"LPS-induced lung injury; HS-DKO mice, FIG. 13E",little effect on AKT phosphorylation
same,"alveolar wall thickening and edema (histology), LPS-induced lung injury","LPS-induced lung injury; WT C57Bl mice, 60 mg/Kg/day via gavage from two days before LPS",reduced
same,"pulmonary permeability, LPS-induced lung injury","LPS-induced lung injury; WT C57Bl mice, 60 mg/Kg/day via gavage from two days before LPS, one day after injury, 60 mg/kg/day",reduced pulmonary permeability; also recorded: attenuates LPS-induced lung injury
same,AKT phosphorylation in LPS-injured lungs,"LPS-induced lung injury; WT mice, FIG. 13D",increased AKT phosphorylation
same,ROS production from human neutrophils,human neutrophils,increases ROS production from human neutrophils
same,"lung permeability, HCl-induced lung injury, preventative treatment",HCl-induced lung injury,pretreatment attenuates HCl-induced lung injury
same,"lung permeability, HCl-induced lung injury, preventative treatment",HCl-induced lung injury; listed as Pazopanib,effective in reduction of permeability
same,"survival, HCl-induced lung injury, preventative treatment",HCl-induced lung injury,pretreatment reduces mortality
same,"survival, HCl-induced lung injury, preventative treatment",HCl-induced lung injury; listed as Pazopanib,extending survival
same,"alveolar wall thickening and edema (histology), HCl-induced lung injury",HCl-induced lung injury; [3],decreased
same,"pulmonary permeability, HCl-induced lung injury, treatment after injury",HCl-induced lung injury; [3],decreased pulmonary permeability; also recorded: attenuates HCl-induced lung injury
same,"survival, HCl-induced lung injury, treatment after injury",HCl-induced lung injury; 2.5 mg/Kg intra-nasal 1 h after HCl (0.1 M),significantly extended the survival; also recorded: pazopanib treatment reduces mortality
same,"lung injury (permeability, survival) in mice lacking p47phox","HCl-induced lung injury; p47phox-deficient mice, FIGS. 16C & 16E",showed no effects; also recorded: abrogated the therapeutic effect of pazopanib
same,ROS production from WT mouse neutrophils,mouse neutrophils,led to increases in the ROS production; also recorded: increases ROS release from neutrophils
"Avastin: Avastin, a VEGF inhibitor; described in b209 as a neutralizing anti-VEGFR antibody (FIG. 15)",HCl-induced acute lung injury / survival of mice,HCl-induced lung injury,limited effects
same,HCl-induced acute lung injury / survival of mice,HCl-induced lung injury; listed as neutralizing anti-VEGFR antibody,no effect in survival
